Test results published in patent publication US6677302B2, “Compositions and methods for the treatment of viral disorders” (The Trustees of Boston University, priority 1996, dated 2004).
Read-outs that look alike come from different tables or passages of the source. Marks after values point to notes of the source that are not given here.

Tests used:
[1] = test system: K562; experiment: DNA fragmentation by flow cytometry; type: cell-based, human; details: FIGS. 4 and 5
Excerpt: It has been shown that sodium butyrate can induce apoptosis in human tumors or tumor cell lines (L. A. Noorduyn et al., Histopathology 21:59, 1992).

[2] = test system: A549 (non-small cell cancer); experiment: Survival fraction after 72 hours exposure (MTT assay); type: cell-based, human
Method: (§1) Growth inhibition was measured by the MTT assay. […] PC-3=prostate cancer; A549=non-small cell cancer; OvCar=ovarian cancer; CaCo=colon cancer; MCF-7=breast cancer; and SW900=non-small cell lung cancer.

[3] = test system: CaCo (colon cancer); experiment: as above; type: cell-based, human; details: 72 hour
Method: as §1

[4] = test system: OvCar (ovarian cancer); experiment: as above; type: cell-based, human
Method: (§2) Growth inhibition was measured by the MTT assay. Survival fraction is calculated from at least 3 experiments, and differences in survival fraction are statistically significant P<0.05, using the Paired Two-Sample For Means T-Test. […] PC-3=prostate cancer; A549=non-small cell cancer; OvCar=ovarian cancer; CaCo=colon cancer; MCF-7=breast cancer; and SW900=non-small cell lung cancer.

[5] = test system: PC-3 (prostate cancer); experiment: as above; type: cell-based, human
Method: as §2

[6] = test system: SW900 (non-small cell lung cancer); experiment: as above; type: cell-based, human
Method: as §2

[7] = test system: MCF-7 (breast cancer); experiment: as above; type: cell-based, human
Method: as §2

[8] = test system: EBV+ and EBV− cell lines (X50-7, Akata, HPB-ALL, Nalm-6); experiment: Growth of EBV+ and EBV− cell lines; type: cell-based, human; details: both EBV+ and EBV− cell lines
Excerpt: In some experiments sodium was used instead of arginine to neutralize butyric acid. […] Cell lines used were X50-7, a latent EBV+ B-cell lymphoma; Akata, a producer EBV+ Burkitt's lymphoma; HPB-ALL, a T-cell line; and Nalm-6, an EBV− B-cell line. Growth curves for X50-7 cells in different concentrations of sodium butyrate are shown in FIG. 8b and the growth curves for HPB-ALL cells in different concentrations of sodium butyrate are shown in FIG. 8c.

[9] = test system: post-transplant EBV-induced lymphomas; experiment: Compassionate treatment of post-transplant EBV-induced lymphomas; type: in vivo, human; details: patient one; GCV for 2 weeks before arginine butyrate
Excerpt: Finally, two patients with post-transplant EBV-induced lymphomas have been treated on a compassionate basis with IRB approval. Each patient is summarized below.
Patient one was a person, 2 months post lung transplant. They were receiving cyclosporin to prevent impending rejection. They developed massive lymphadenopathy in mediastinum and hilum, with progressive respiratory failure. They were biopsy positive for EBV, and the tumor cells were monoclonal and of donor origin.
They had been off all therapy, except ganciclovir, for 3 weeks when they started arginine butyrate at 1,000 mg/kg/day. […] They eventually died from Aspergillus infection.
The second patient was a person, 4 months post-allogeneic bone marrow transplant for leukemia. They were receiving cyclosporin to prevent rejection. They developed cervical, mediastinal and abdominal lymphadenopathy, with brain metastases. A biopsy was positive for EBV and tumor cells were monoclonal confirming the diagnosis of LPD.
They had been treated with and had no response to XRT, CHOP, or α-IFN plus gamma globulin. They had been off all therapy for 2 weeks and was cachectic, too weak to ambulate, paraplegic, in constant pain and had been admitted for terminal care, when they started arginine butyrate at 1,000 mg/kg/day and ganciclovir.

[10] = test system: Fibroblasts (normal human); experiment: MIC on cell proliferation, 7 days in culture; type: cell-based; details: lowest dose that prevents all growth over 7 days
Method: (§3) The ability of arginine butyrate to induce differentiation has been evaluated and is measured by inhibition of growth, in some of the neoplastic cell types previously reported to be sensitive to (sodium) butyric acid, and found arginine butyrate to be as potent as butyric acid. We have also extended that work to additional cell types and found Arginine Butyrate to induce differentiation in these new cell types. Table 1 lists the cell types tested and the minimum inhibitory concentration (MIC) of sodium butyrate (NaB) and arginine butyrate (ArgB) on these cell lines. The MIC is the lowest dose that prevents all growth over the 7 days that the cells are maintained in culture, that is the minimum dose that prevents an increase in cell number. […] The […] of ArgB and NaB were equivalent on all cell lines tested.

[11] = test system: Fibroblasts (mouse BALB/c-3T3); experiment: MIC on cell proliferation, 7 days in culture; type: cell-based
Method: as §3

[12] = children with acute myelogenous leukemia or neuroblastoma; 0.5-1.5 g/kg/day for 14 days and 10 g/kg/day IV; cited from earlier work
[13] = test system: Choriocarcinoma (JAR); experiment: MIC on cell proliferation, 7 days in culture; type: cell-based, human
Method: as §3

[14] = test system: Erythroleukemia (K562); experiment: MIC on cell proliferation, 7 days in culture; type: cell-based, human
Method: as §3

[15] = test system: Gastric Carcinoma (AGS); experiment: MIC on cell proliferation, 7 days in culture; type: cell-based, human
Method: as §3

[16] = test system: Rhabdomyosarcoma; experiment: MIC on cell proliferation, 7 days in culture; type: cell-based, human
Method: as §3

[17] = test system: Myeloid Leukemia (HL60); experiment: MIC on cell proliferation, 7 days in culture; type: cell-based, human
Method: as §3

[18] = test system: Osteosarcoma (HOS); experiment: MIC on cell proliferation, 7 days in culture; type: cell-based, human
Method: as §3

[19] = test system: Colonic Adenocarcinoma (HT29); experiment: MIC on cell proliferation, 7 days in culture; type: cell-based, human
Method: as §3

[20] = Clinical toxicity in patients; type: in vivo, human; details: adults; IV infusion of similar doses
Method: Clinical experience with butyrates have been performed in children with acute myelogenous leukemia in Israel, and in children with neuroblastoma (K. Prasad, Life Sci. 27:1351-58, 1980). […] Eleven pediatric patients and twelve adults with β-hemoglobinopathies were treated with IV arginine butyrate at a starting dose of 500 mg/kg/day for 2-7 weeks. If no side effects were noted, the rate was increased by 250 mg/kg/day to a final rate of 1500 mg/kg/day in 4 patients, and 2000 mg/kg/day in 2 patients. […] This rise in BUN returned to normal within 12 hours of discontinuation of drug, and is thought to be secondary to effect of arginine upon ureagenesis. […] Peak serum levels of butyrate ranged between 0.04-0.05 mM, and butyrate was not detectable 15 minutes after infusion was discontinued. Plasma arginine levels were also rapidly cleared, with a T1/2 of 15 minutes, and baseline arginine levels were reached within 12 hours after discontinuation of infusion.
Three patients with refractory neoplasms (breast, melanoma, adenocarcinoma, of unknown primary) have been enrolled and completed 1-2 cycles of arginine butyrate as a dose of 500 mg/kg/day over 6-8 hours for 10 days.
Three patients (with breast cancer, bowel cancer or Hodgkins disease) have completed two cycles of arginine butyrate at a dose of 750 mg/kg/day for 10 days. […] Otherwise, there was no other objective measures of organ progressed after treatment was topped. […] There was a further resolution of the disease during the second cycle. Disease progression was noted one month after second cycle was completed. At 1000 mg/kg/day, 3 patients have been enrolled on study.
An inter-group dose-escalation study is being conducted in patients with refractory malignancies. There are 3 patients per group with the dose levels starting at 500 mg/kg/day, and increasing by 250 mg/kg/day per group, if toxicity permits. Doses are given by 8 hour IV infusion, daily, for 5 days times 2 weeks, with weekends off, for a total of 10 days of treatment per cycle.

[21] = test system: breast and colon lines; experiment: Enhancement of cytotoxicity of other chemotherapeutic agents by arginine butyrate; details: evaluated with arginine butyrate
Excerpt: Other chemotherapeutic agents with non-overlapping mechanisms of antiproliferative activity such as 5-fluorouracil, taxol and interferon alpha have been evaluated with arginine butyrate.

[22] = Table 4, 0.1 A (0.1 μg/ml), 72 hour
[23] = Table 4, 0.5 A (0.5 μg/ml), 72 hour
[24] = Table 3, 1 CP (1.0 μg/ml), 72 hours
[25] = Table 3, 2 CP (2.0 μg/ml), 72 hours

COc1cccc2c1C(=O)c1c(O)c3c(c(O)c1C2=O)C[C@@](O)(C(=O)CO)C[C@@H]3O[C@H]1C[C@H](N)[C@H](O)[C@H](C)O1 [A, adriamycin]
apoptotic activity on addition of arginine butyrate [1]: increased their apoptotic activity
Survival Fraction [2, 22]: 0.59*
Survival Fraction [2, 23]: 0.59*
Survival Fraction ([3]; Table 4, 0.1 A (0.1 μg/ml)): 0.68*
Survival Fraction ([3]; Table 4, 0.5 A (0.5 μg/ml)): 0.62*
Survival Fraction [4, 22]: 0.83*
Survival Fraction [4, 23]: 0.81*
Survival Fraction [5, 22]: 0.72*
Survival Fraction [5, 23]: 0.68*
Survival Fraction ([6]; Table 4, 0.1 A (0.1 μg/ml)): 0.82*
Survival Fraction ([6]; Table 4, 0.5 A (0.5 μg/ml)): 0.76*
Survival Fraction ([7]; Table 4, 0.1 A (0.1 μg/ml)): 0.73*
Survival Fraction ([7]; Table 4, 0.5 A (0.5 μg/ml)): 0.69*

N.N.[Cl][Pt][Cl] [CP, cisplatin]
Survival Fraction [2, 24]: 0.77*
Survival Fraction [2, 25]: 0.54*
Survival Fraction [4, 24]: 0.91
Survival Fraction [4, 25]: 0.45*
Survival Fraction [5, 24]: 0.92
Survival Fraction [5, 25]: 0.49*

Nc1nc(O)c2ncn(COC(CO)CO)c2n1 [GCV, ganciclovir, reference compound]
levels generally cytocidal [8]: above 30 μM
tumor response [9]: showed no response

CCCC(=O)[O-].[Na+] [NaB, sodium butyrate, reference compound]
MIC [10]: >5,000 μM
MIC [11]: >5,000 μM
toxic side effects [12]: without toxic side effects
MIC [13]: 156 µM
MIC [14]: >5,000 μM
MIC [15]: 2,000 μM
MIC [16]: 156 µM
MIC [17]: 78 µM
MIC [18]: 312 µM
MIC [19]: 2,000 μM
toxic side effects [20]: no toxic side effects

CC[C@@]1(O)C(=O)OCc2c1cc1n(c2=O)Cc2cc3ccccc3nc2-1 [camptothecin]
apoptotic activity on addition of arginine butyrate [1]: increased their apoptotic activity

C[C@@H]1C[C@@H]([C@H](O)CC2CC(=O)NC(=O)C2)C(=O)[C@@H](C)C1 [cyclohexamide]
apoptotic activity on addition of arginine butyrate [1]: increased their apoptotic activity

O=P1(N(CCCl)CCCl)NCCCO1 (stereo not shown) [cyclophosphamide]
apoptotic activity on addition of arginine butyrate [1]: Lack of enhancement

COc1cc([C@@H]2c3cc4c(cc3[C@@H](O[C@@H]3O[C@@H]5CO[C@@H](C)O[C@H]5[C@H](O)[C@H]3O)[C@H]3COC(=O)[C@H]23)OCO4)cc(OC)c1O [etoposide]
apoptotic activity on addition of arginine butyrate [1]: increased their apoptotic activity

CC(=O)O[C@H]1C(=O)[C@@]2(C)[C@H]([C@H](OC(=O)c3ccccc3)[C@]3(O)C[C@H](OC(=O)[C@H](O)[C@@H](NC(=O)c4ccccc4)c4ccccc4)C(C)=C1C3(C)C)[C@]1(OC(C)=O)CO[C@@H]1C[C@@H]2O [taxol]
concentration of agent at which enhancement of cytotoxicity was observed [21]: exceeding 10 mM
